Assay results published in patent US20260241046A1, “PROSTATE-SPECIFIC MEMBRANE ANTIGEN RECEPTOR-TARGETING RADIOPHARMACEUTICALS AND USES THEREOF” (Nuclidium AG, priority 2024, published 2026).

What was measured:
[1] = approved PET radiotracers, for comparison; cited from earlier work
[2] = molecular target: T1, PSMA (Homo sapiens, UniProt Q04609); test: Binding affinity (IC50), competition with [^125I]I-BAKuE on LNCaP cells; conditions: 0.2 nM [^125I]I-BAKuE, 1 hour on ice
T1 construct: endogenous in cells; host or cells: LNCaP
T1 sequence (Q04609 whole entry): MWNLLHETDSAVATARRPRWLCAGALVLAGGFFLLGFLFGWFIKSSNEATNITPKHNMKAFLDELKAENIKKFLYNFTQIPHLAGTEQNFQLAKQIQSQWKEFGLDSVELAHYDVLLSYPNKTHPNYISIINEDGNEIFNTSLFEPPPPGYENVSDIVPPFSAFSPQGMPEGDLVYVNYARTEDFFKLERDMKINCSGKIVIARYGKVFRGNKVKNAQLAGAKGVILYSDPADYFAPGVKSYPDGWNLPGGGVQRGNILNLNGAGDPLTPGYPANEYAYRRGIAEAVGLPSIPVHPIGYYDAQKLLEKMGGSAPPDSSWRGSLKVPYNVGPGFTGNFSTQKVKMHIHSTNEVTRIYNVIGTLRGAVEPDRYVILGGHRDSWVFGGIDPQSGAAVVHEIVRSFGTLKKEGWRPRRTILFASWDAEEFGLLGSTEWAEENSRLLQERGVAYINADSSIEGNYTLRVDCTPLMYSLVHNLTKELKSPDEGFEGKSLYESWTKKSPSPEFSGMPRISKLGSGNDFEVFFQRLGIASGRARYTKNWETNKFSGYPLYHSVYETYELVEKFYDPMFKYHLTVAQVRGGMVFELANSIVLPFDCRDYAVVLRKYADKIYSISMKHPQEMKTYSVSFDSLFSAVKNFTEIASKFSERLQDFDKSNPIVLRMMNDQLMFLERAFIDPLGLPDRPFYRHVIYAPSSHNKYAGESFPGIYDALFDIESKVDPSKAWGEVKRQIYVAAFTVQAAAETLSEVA
Experimental: The binding affinity of NODAGA-PSMA I&T was determined by measuring IC50 by labelling the precursor with natural copper (^natCu). […] The radioiodinated ((S)-1-carboxy-5-(4-(-^125I-iodo-benzamido) pentyl) carbamoyl)-L-glutamic acid ([^125I]I-BAKuE) was used as reference radioligand. The assay was performed on LNCaP cells, human prostate cancer cells characterized by high expression levels of PSMA.
^natCu-NODAGA-PSMA I&T was produced by dissolving NODAGA-PSMA I&T (0.7 μmol) in 0.30 mL of ammonium acetate (0.5 M, pH 8), followed by the addition of 0.15 mL CuCl2 in 0.05 M hydrochloric acid. The reaction mixture was incubated for 15 min at 95° C. The product was purified from unlabeled ^natCu using a SepPak Classic C18 cartridge (Waters, Eschborn, Germany), washed with water, and eluted with 2 mL methanol. After evaporation of methanol, the product was reconstituted in 0.3 mg/mL 30% (v/v) acetonitrile in water.
The assay was performed on LNCaP cells seeded in 24-well plates. The cells were incubated with increasing concentrations of ^natCu-NODAGA-PSMA I&T (ranging from 0.1 up to 100 nM) in the presence of 0.2 nM [^125]I-BAKuE. After 1 hour of incubation on ice, the unbound (free) [^125I]I-BAKuE was collected by removing the medium (EMEM EBS) and the cells were detached with 1 M sodium hydroxide for counting (bound radioligand). […]

[3] = Storage of lyophilized precursor; type: physicochemical; conditions: lyophilized powder, kept at 25° C. for up to 14 days
[4] = tested on: CD-1 mice; test: Extended single-dose toxicity study (GLP); type: in vivo
Experimental: (§1) The study was designed as an extended single-dose toxicity study in one rodent species and performed under GLP conditions. NODAGA-PSMA I&T toxicity was evaluated after intravenous administration on day 1 of the study, followed by an observation period of 2 weeks. 60 (30 males and 30 females) CD-1 mice were divided into one dose group and one control group. The test item was administered once by i.v. administration into the tail vein. In each of the two groups, (I) 10 male and 10 female animals were euthanized the day after dosing, (II) 5 male and 5 female recovery animals were kept for an observation period of 2 weeks after dosing to detect possible delayed occurrence or persistence of, or recovery from toxic effects.
(§2) The dose animals' group was injected with 5 mg/kg NODAGA-PSMA I&T in 5% dimethyl sulfoxide (application volume 5 mL/kg) as a vehicle. The control group underwent injection of the vehicle alone (5 mL/kg). The animals were observed daily for signs of toxicity and morbidity/mortality. All animals were sacrificed for necropsy. Blood was taken at the time of necropsies to analyze hematological and clinical biochemistry parameters and urine for urinalysis. The wet weight of a tissue subset was taken, and a set of organs/tissues was preserved. A complete histopathological evaluation of the tissues was performed on treated and control animals.

[5] = Extended single-dose toxicity study (GLP); type: in vivo; conditions: both sexes, mouse, in vivo, iv, 5 mg/kg; single i.v. dose, CD-1 mice; read-out: no adverse effect level (NOAEL)
Experimental: as §1, §2

[6] = Pharmacokinetics in healthy mice; type: in vivo
Experimental: The pharmacokinetics of the investigated radiopharmaceutical was evaluated in healthy female BALB/c mice from 1 to 24 hours. For the latest time points (12 and 24 hours), NODAGA-PSMA I&T was radiolabeled with ^64Cu obtained from the Tübingen University Hospital. The use of a different PET copper isotope is justified by the longer half-life of ^64Cu (t1/2=12.7 hours), which is more appropriate for tests that include delayed time points. Additionally, using an isotope from the same element ensures that the radiopharmaceutical retains its chemical and physical properties, guaranteeing consistency in the study. Mice were injected i.v. with 4 MBq (200 pmol) of [^61/64Cu]Cu-NODAGA-PSMA I&T diluted to 100 μL with saline solution. The data were combined with the results obtained from the groups of xenografts at 1 and 4 hours post-injection, as the biodistribution in nude mice was the same as in the healthy mice. The results are presented in Table 27 and are expressed as mean±standard deviation.

[7] = 5 mg/kg i.v., CD-1 mice, transitory, non-adverse
[8] = 12 hours post-injection (^64Cu)
[9] = 24 hours post-injection (^64Cu)

SMILES: O=C([O-])CN(CCN(CC(=O)[O-])Cc1cc(CCC(=O)NCCCCCC(=O)NCCCC[C@H](NC(=O)N[C@@H](CCC(=O)O)C(=O)O)C(=O)O)ccc1[O-])Cc1cc(CCC(=O)O)ccc1[O-].[68Ga+3].[OH3+] [[^68Ga]Ga-PSMA-11]
- Effective Dose [1]: 0.023 mSv/MBq

SMILES: O=C(O)CC[C@H](NC(=O)N[C@@H](CCCCNC(=O)CCCCCCC(=O)NCCCC[C@@H](NC(=O)[C@@H](Cc1ccccc1)NC(=O)[C@@H](Cc1ccc(O)c(I)c1)NC(=O)CC[C@H](C(=O)O)N1CCN2CCN(CC1)CC(=O)[O][Cu][O]C(=O)C2)C(=O)O)C(=O)O)C(=O)O [^natCu-NODAGA-PSMA I&T]
- IC50 [2]: 9.3 ± 1.8 nM

SMILES: O=C(O)CC[C@H](NC(=O)N[C@@H](CCCCNC(=O)CCCCCCC(=O)NCCCC[C@@H](NC(=O)[C@@H](Cc1ccccc1)NC(=O)[C@@H](Cc1ccc(O)c(I)c1)NC(=O)CC[C@H](C(=O)O)N1CCN(CC(=O)O)CCN(CC(=O)O)CC1)C(=O)O)C(=O)O)C(=O)O [NODAGA-PSMA I&T, NODAGA-(I-y) fk (Sub-KuE)]
- degradation on storage [3]: no signs of degradation
- clinical tolerance ([4]; 5 mg/kg i.v., CD-1 mice): clinically well-tolerated
- effects on body weight gain or food consumption ([4]; 5 mg/kg i.v., CD-1 mice): No effects on body weight gain or food consumption were noted
- effects on organ weights ([4]; 5 mg/kg i.v., CD-1 mice): No adverse effects on organ weights were noted
- macroscopic or microscopic findings ([4]; 5 mg/kg i.v., CD-1 mice): No macroscopic or microscopic findings that could be attributed to treatment
- treatment-related mortality or acute adverse effect ([4]; 5 mg/kg i.v., CD-1 mice): no treatment-related mortality or acute adverse effect was registered
- glucose level [4, 7]: decrease in glucose level
- platelet count [4, 7]: decrease in platelet count
- potassium level [4, 7]: increase in potassium level
- safety ratio ([4]; versus intended average patient dose 0.4 μg/kg, with dose conversion factor): 1000 times
- NOAEL at 2 weeks [5]: 5 mg/kg

SMILES: O=C(O)CC[C@H](NC(=O)N[C@@H](CCCCNC(=O)c1ccc([18F])nc1)C(=O)O)C(=O)O [Pylarify]
- Effective Dose [1]: 0.017 mSv/MBq

SMILES: O=C([O-])CN1CCN(CC(=O)[O-])CCN([C@H](CCC(=O)N[C@H](Cc2ccc(O)c(I)c2)C(=O)N[C@H](Cc2ccccc2)C(=O)N[C@H](CCCCNC(=O)CCCCCCC(=O)NCCCC[C@H](NC(=O)N[C@@H](CCC(=O)O)C(=O)O)C(=O)O)C(=O)O)C(=O)O)CC1.[Cu+2] [[^61/64Cu]Cu-NODAGA-PSMA I&T]
- Biodistribution healthy mice, Adrenal ([6]; 1 hour post-injection): 14.38 ± 4.39 % AI/g
- Biodistribution healthy mice, Blood ([6]; 1 hour post-injection): 0.33 ± 0.09 % AI/g
- Biodistribution healthy mice, Femur ([6]; 1 hour post-injection): 2.48 ± 0.97 % AI/g
- Biodistribution healthy mice, Heart ([6]; 1 hour post-injection): 0.49 ± 0.12 % AI/g
- Biodistribution healthy mice, Intestine ([6]; 1 hour post-injection): 2.11 ± 0.85 % AI/g
- Biodistribution healthy mice, Kidneys ([6]; 1 hour post-injection): 124 ± 21 % AI/g
- Biodistribution healthy mice, Liver ([6]; 1 hour post-injection): 1.12 ± 0.25 % AI/g
- Biodistribution healthy mice, Lung ([6]; 1 hour post-injection): 1.49 ± 0.45 % AI/g
- Biodistribution healthy mice, Muscles ([6]; 1 hour post-injection): 0.99 ± 0.30 % AI/g
- Biodistribution healthy mice, Pancreas ([6]; 1 hour post-injection): 1.37 ± 0.90 % AI/g
- Biodistribution healthy mice, Salivary glands ([6]; 1 hour post-injection): 1.89 ± 0.28 % AI/g
- Biodistribution healthy mice, Spleen ([6]; 1 hour post-injection): 9.33 ± 3.81 % AI/g
- Biodistribution healthy mice, Stomach ([6]; 1 hour post-injection): 1.12 ± 0.15 % AI/g
- Biodistribution healthy mice, Adrenal ([6]; 4 hours post-injection): 7.31 ± 2.76 % AI/g
- Biodistribution healthy mice, Blood ([6]; 4 hours post-injection): 0.11 ± 0.03 % AI/g
- Biodistribution healthy mice, Femur ([6]; 4 hours post-injection): 1.34 ± 0.38 % AI/g
- Biodistribution healthy mice, Heart ([6]; 4 hours post-injection): 0.25 ± 0.06 % AI/g
- Biodistribution healthy mice, Intestine ([6]; 4 hours post-injection): 1.12 ± 0.48 % AI/g
- Biodistribution healthy mice, Kidneys ([6]; 4 hours post-injection): 94 ± 12 % AI/g
- Biodistribution healthy mice, Liver ([6]; 4 hours post-injection): 0.88 ± 0.25 % AI/g
- Biodistribution healthy mice, Lung ([6]; 4 hours post-injection): 0.68 ± 0.22 % AI/g
- Biodistribution healthy mice, Muscles ([6]; 4 hours post-injection): 0.45 ± 0.18 % AI/g
- Biodistribution healthy mice, Pancreas ([6]; 4 hours post-injection): 0.55 ± 0.16 % AI/g
- Biodistribution healthy mice, Salivary glands ([6]; 4 hours post-injection): 0.58 ± 0.12 % AI/g
- Biodistribution healthy mice, Spleen ([6]; 4 hours post-injection): 2.35 ± 1.45 % AI/g
- Biodistribution healthy mice, Stomach ([6]; 4 hours post-injection): 0.72 ± 0.15 % AI/g
- Biodistribution healthy mice, Adrenal [6, 8]: 2.99 ± 0.93 % AI/g
- Biodistribution healthy mice, Blood [6, 8]: 0.11 ± 0.01 % AI/g
- Biodistribution healthy mice, Femur [6, 8]: 0.50 ± 0.10 % AI/g
- Biodistribution healthy mice, Heart [6, 8]: 0.26 ± 0.05 % AI/g
- Biodistribution healthy mice, Intestine [6, 8]: 0.94 ± 0.41 % AI/g
- Biodistribution healthy mice, Kidneys [6, 8]: 60 ± 9 % AI/g
- Biodistribution healthy mice, Liver [6, 8]: 0.96 ± 0.18 % AI/g
- Biodistribution healthy mice, Lung [6, 8]: 0.52 ± 0.11 % AI/g
- Biodistribution healthy mice, Muscles [6, 8]: 0.25 ± 0.05 % AI/g
- Biodistribution healthy mice, Pancreas [6, 8]: 0.28 ± 0.04 % AI/g
- Biodistribution healthy mice, Salivary glands [6, 8]: 0.39 ± 0.05 % AI/g
- Biodistribution healthy mice, Spleen [6, 8]: 1.40 ± 0.57 % AI/g
- Biodistribution healthy mice, Stomach [6, 8]: 0.52 ± 0.03 % AI/g
- accumulated activity in the kidneys ([6]; 24 hours post-injection): < 20 % IA/g
- Biodistribution healthy mice, Adrenal [6, 9]: 1.17 ± 0.22 % AI/g
- Biodistribution healthy mice, Blood [6, 9]: 0.08 ± 0.01 % AI/g
- Biodistribution healthy mice, Femur [6, 9]: 0.20 ± 0.05 % AI/g
- Biodistribution healthy mice, Heart [6, 9]: 0.21 ± 0.02 % AI/g
- Biodistribution healthy mice, Intestine [6, 9]: 0.46 ± 0.11 % AI/g
- Biodistribution healthy mice, Kidneys [6, 9]: 16.1 ± 4.9 % AI/g
- Biodistribution healthy mice, Liver [6, 9]: 0.84 ± 0.11 % AI/g
- Biodistribution healthy mice, Lung [6, 9]: 0.32 ± 0.12 % AI/g
- Biodistribution healthy mice, Muscles [6, 9]: 0.08 ± 0.02 % AI/g
- Biodistribution healthy mice, Pancreas [6, 9]: 0.17 ± 0.03 % AI/g
- Biodistribution healthy mice, Salivary glands [6, 9]: 0.22 ± 0.05 % AI/g
- Biodistribution healthy mice, Spleen [6, 9]: 0.58 ± 0.15 % AI/g
- Biodistribution healthy mice, Stomach [6, 9]: 0.31 ± 0.05 % AI/g
